Reference: patent publication US20060205733A1, “Endothelin a receptor antagonists in combination with phosphodiesterase 5 inhibitors and uses thereof” (Encysive Pharmaceuticals, priority 2004, published 2006)
Where a name gives a salt, the structure may show the parent alone. Read-outs that look alike come from different tables or passages of the source. One block for each compound: values may come before it.

Legend:
bile salt export pump = bile salt export pump (Homo sapiens, UniProt O95342); conditions: cited from earlier work
cytochrome P450 enzymes = conditions: in vivo; cited from earlier work
[1] = in vivo; cited from earlier work
ETA [2] = molecular target: T1, ETA (Homo sapiens, UniProt P25101); conditions: cited from earlier work; for Selectivity: ETA versus ETB, Table 2
T1 sequence (P25101 21-427): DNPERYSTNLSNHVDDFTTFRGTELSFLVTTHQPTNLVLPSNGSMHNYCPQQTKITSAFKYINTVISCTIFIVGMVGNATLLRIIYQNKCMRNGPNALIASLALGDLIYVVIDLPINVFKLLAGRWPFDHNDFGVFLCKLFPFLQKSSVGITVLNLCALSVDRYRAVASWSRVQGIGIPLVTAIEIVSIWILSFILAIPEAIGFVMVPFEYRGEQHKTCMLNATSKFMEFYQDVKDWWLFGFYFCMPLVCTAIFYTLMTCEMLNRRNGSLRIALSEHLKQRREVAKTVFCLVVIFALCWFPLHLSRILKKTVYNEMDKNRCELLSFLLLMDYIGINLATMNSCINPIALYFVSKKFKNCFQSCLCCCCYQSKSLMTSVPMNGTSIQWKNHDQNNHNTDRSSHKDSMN

ETB [3] = molecular target: T2, ETB (Homo sapiens, UniProt P24530); conditions: read-out: Binding K1 (nM) to ETB; cited from earlier work
T2 sequence (P24530 27-442): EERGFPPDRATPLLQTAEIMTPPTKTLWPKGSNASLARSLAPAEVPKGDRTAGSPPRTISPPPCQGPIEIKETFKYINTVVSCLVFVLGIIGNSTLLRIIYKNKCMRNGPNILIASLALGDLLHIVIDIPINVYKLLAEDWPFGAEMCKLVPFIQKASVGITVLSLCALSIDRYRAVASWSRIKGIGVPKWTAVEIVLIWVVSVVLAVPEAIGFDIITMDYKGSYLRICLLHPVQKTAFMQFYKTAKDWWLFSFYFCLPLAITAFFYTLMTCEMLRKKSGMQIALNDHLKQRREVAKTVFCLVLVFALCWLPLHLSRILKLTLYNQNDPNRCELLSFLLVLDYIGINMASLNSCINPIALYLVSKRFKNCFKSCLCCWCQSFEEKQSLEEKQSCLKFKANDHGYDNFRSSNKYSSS

[4] = Pharmacokinetic drug interaction study, sitaxsentan and sildenafil; format: in vivo, human; conditions: for Cmax: healthy subjects; for Cmax / AUC(0-inf) / AUC0-t / Vd/F / half-life / CL/F / λz / AUC∞ / t½: mean ± SD; for Vd/F: read-out: Vz/F; for half-life: read-out: t½ (converted); for Tmax: median; for Effect of sildenafil administration on sitaxsentan levels / pharmacokinetics: single 100 mg sildenafil on day 7 of 100 mg sitaxsentan daily
Method: A pharmacokinetic drug interaction study was performed using 24 individuals. In the study, a group of 24 normal, healthy volunteers participated in two treatment periods. […] During the other treatment period, the subjects received placebo for seven days and 100 mg of VIAGRA on the seventh day. Twelve subjects were randomly assigned to each treatment period. When the subjects finished one treatment period, they were switched to the other treatment period.
Samples were drawn (in duplicate) once on days 1, 3, 5 and 6; 15 times on day 7 and once again on day 8 for each treatment period. The samples were stored at a nominal temperature of −20° C. for a duration not exceeding 38 days. All samples were analyzed with a set of calibration standards and low, medium and high concentration Quality Control samples.

[5] = in vivo; cited from earlier work; remark: listed apart in the source
ETA [6] = molecular target: T1, ETA; conditions: cited from earlier work
cytochrome P450 3A4 = molecular target: T3, cytochrome P450 3A4 (Homo sapiens, UniProt P08684); assay: Cytochrome P450 3A4 inhibition in cultured hepatocytes; format: in vitro ADME
T3 construct: endogenous in cells; host or cells: cultured hepatocytes

[7] = in vivo; cited from earlier work; remark: listed apart in the source
ETA [8] = molecular target: T4, ETA (Sus scrofa, UniProt Q29010); conditions: read-out: IC50, inhibition of 125I-labeled endothelin-1 binding, cited from earlier work
T4 construct: from tissue; host or cells: aortic smooth muscle, ventricle membranes, cultured aortic smooth muscle cells
T4 sequence (Q29010 21-427): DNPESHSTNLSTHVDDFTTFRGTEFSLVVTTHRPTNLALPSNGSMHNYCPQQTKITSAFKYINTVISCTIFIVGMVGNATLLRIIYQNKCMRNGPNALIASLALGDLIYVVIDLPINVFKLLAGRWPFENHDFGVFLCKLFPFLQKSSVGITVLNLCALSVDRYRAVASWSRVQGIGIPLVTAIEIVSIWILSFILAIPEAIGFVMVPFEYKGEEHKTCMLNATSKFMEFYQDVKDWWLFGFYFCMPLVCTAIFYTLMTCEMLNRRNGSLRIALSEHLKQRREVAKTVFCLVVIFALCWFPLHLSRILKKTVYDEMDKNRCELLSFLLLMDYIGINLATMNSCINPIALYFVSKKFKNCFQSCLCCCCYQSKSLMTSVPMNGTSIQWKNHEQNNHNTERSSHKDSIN

ETB [9] = molecular target: T2, ETB; conditions: concentrations up to 100 μM; cited from earlier work
[10] = read-out: Binding K1 (nM) to ETA
[11] = human, plasma, po, 100 mg, single 100 mg oral sildenafil after 100 mg sitaxsentan daily for seven days
[12] = human, plasma, po, 100 mg, single 100 mg oral sildenafil after placebo daily for seven days
[13] = single 100 mg oral sildenafil after 100 mg sitaxsentan daily for seven days
[14] = single 100 mg oral sildenafil after placebo daily for seven days
[15] = sitaxsentan versus placebo pretreatment, natural log-transformed data

Sequence of bile salt export pump (O95342 whole entry): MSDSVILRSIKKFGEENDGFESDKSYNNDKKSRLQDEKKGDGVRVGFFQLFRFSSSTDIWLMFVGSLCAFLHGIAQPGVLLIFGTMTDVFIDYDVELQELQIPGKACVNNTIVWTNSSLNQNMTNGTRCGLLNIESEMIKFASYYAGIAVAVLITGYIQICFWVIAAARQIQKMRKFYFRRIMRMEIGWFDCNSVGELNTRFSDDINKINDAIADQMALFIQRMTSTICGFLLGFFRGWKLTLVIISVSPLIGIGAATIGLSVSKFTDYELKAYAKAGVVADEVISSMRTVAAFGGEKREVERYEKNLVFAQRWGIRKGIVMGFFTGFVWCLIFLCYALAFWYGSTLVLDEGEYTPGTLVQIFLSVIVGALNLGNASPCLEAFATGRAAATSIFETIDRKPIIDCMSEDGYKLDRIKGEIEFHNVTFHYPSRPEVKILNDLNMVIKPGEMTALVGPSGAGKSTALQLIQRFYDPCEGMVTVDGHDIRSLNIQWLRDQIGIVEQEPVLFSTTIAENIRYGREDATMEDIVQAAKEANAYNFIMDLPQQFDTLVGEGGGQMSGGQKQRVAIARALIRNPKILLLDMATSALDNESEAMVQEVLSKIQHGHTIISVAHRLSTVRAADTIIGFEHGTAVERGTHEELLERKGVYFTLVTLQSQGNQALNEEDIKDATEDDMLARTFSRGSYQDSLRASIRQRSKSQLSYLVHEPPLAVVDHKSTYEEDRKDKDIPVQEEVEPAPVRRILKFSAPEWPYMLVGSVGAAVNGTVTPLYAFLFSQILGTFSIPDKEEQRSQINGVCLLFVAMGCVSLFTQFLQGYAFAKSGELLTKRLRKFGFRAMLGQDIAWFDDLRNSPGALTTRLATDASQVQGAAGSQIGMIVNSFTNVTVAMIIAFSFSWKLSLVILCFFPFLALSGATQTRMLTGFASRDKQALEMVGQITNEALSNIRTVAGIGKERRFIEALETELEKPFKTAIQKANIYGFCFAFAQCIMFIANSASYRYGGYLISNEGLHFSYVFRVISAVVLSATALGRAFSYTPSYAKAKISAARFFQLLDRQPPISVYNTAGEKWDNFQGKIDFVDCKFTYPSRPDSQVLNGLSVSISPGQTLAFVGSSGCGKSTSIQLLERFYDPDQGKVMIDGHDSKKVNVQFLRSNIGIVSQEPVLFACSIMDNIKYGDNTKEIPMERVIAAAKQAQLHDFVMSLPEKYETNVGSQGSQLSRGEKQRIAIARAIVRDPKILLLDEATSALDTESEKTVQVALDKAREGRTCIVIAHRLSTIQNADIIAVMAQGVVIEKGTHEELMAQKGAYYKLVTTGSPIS
T3 sequence (P08684 whole entry): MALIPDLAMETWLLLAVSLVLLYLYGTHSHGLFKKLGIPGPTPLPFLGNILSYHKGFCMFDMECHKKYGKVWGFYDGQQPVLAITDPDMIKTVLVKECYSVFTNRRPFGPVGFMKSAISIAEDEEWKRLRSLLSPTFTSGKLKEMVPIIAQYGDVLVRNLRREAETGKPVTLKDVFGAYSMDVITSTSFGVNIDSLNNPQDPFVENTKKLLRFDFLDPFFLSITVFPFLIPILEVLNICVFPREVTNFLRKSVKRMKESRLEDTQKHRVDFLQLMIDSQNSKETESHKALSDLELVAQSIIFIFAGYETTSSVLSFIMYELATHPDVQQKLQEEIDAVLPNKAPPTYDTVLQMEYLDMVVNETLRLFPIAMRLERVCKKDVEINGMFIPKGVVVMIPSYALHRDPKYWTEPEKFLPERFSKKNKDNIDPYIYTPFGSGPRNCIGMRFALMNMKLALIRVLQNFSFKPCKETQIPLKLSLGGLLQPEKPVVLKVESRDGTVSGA

Compound: COc1ccccc1Oc1c(NS(=O)(=O)c2ccc(C(C)(C)C)cc2)nc(-c2ncccn2)nc1OCCO [Bosentan]
Effect on bile salt (bile salt export pump): Inhibits bile salt | Induction of cytochrome P450 enzymes (cytochrome P450 enzymes): Causes inhibition, | Metabolism [1]: Through 3A4 and 2C9 | Route of elimination [1]: Hepatic | t1/2 [1]: 5 h

Compound: COc1ccccc1Oc1c(NS(=O)(=O)c2ccc(C)cn2)nc(-c2ccnc(-c3nnn[nH]3)c2)nc1OCCO [Ro-61.1790]
Selectivity (ETA [2]): 1000 | Ki (ETA [2]; [10]): 0.13 nM | Ki (ETB [3]): > 130 nM

Compound: CCCOc1ccc2c(c1)[C@@H](c1ccc(OC)cc1OCC(=O)O)[C@H](C(=O)O)[C@H]2c1ccc2c(c1)OCO2 [SB-209670]
Selectivity (ETA [2]): 90

Compound: CCCCc1ccc2c(n1)[C@@H](c1ccc(OC)cc1C[C@H](C)C(=O)O)[C@H](C(=O)O)[C@H]2c1ccc2c(c1)OCO2 [J-104132]
Selectivity (ETA [2]): 2.9 | Ki (ETA [2]; [10]): 0.034 nM | Ki (ETB [3]): 0.1 nM

Compound: COc1nc(C)cnc1NS(=O)(=O)c1cccnc1-c1ccc(CC(C)(C)C(=O)O)cc1 [ZD-1811]
Selectivity (ETA [2]): 1500 | Ki (ETA [2]; estimated from the IC∞ value, read-out: Binding K1 (nM) to ETA, K1 estimated from the IC∞ value): 1.3 nM | Ki (ETB [3]): > 2000 nM

Compound: Cc1noc(NS(=O)(=O)c2cccc3c(N(C)C)cccc23)c1C [BMS-182874]
Ki (ETB [3]): > 50000 nM

Compound: FR-139317
Ki (ETB [3]): 7300 nM

Cmax ([4]; human, plasma, po, 100 mg, single 100 mg oral sildenafil after 100 mg sitaxsentan daily for seven days, read-out: Cmax): 440 ± 232 ng/mL | AUC(0-inf) [4, 11]: 1650 ng·h/mL | AUC0-t ([4]; human, plasma, po, 100 mg, single 100 mg oral sildenafil after 100 mg sitaxsentan daily for seven days, read-out: AUC0-t): 1580 ng·h/mL | Vd/F [4, 11]: 34.8 ± 11.5 L | half-life [4, 11]: 2.82 ± 0.45 h | Tmax ([4]; human, plasma, po, 100 mg, single 100 mg oral sildenafil after 100 mg sitaxsentan daily for seven days, read-out: Tmax): 1.25 h | Cmax ([4]; human, plasma, po, 100 mg, single 100 mg oral sildenafil after placebo daily for seven days, read-out: Cmax): 377 ± 208 ng/mL | AUC(0-inf) [4, 12]: 1300 ng·h/mL | AUC0-t ([4]; human, plasma, po, 100 mg, single 100 mg oral sildenafil after placebo daily for seven days, read-out: AUC0-t): 1220 ng·h/mL | Vd/F [4, 12]: 43.6 ± 18.9 L | half-life [4, 12]: 2.76 ± 0.45 h | Tmax ([4]; human, plasma, po, 100 mg, single 100 mg oral sildenafil after placebo daily for seven days, read-out: Tmax): 1 h | Increase of AUC∞ (area under the plasma concentration/time curve) ([4]; in the presence of sitaxsentan): 28% | Increase of Cmax (maximum concentration) ([4]; in the presence of sitaxsentan): 18% | CL/F [4, 13]: 147 ± 56.4 mL/min | λz [4, 13]: 0.2514 ± 0.0364 h⁻¹ | CL/F [4, 14]: 184 ± 69.0 mL/min | λz [4, 14]: 0.2584 ± 0.0444 h⁻¹
Compound: CCCc1nn(C)c2c(=O)[nH]c(-c3cc(S(=O)(=O)N4CCN(C)CC4)ccc3OCC)nc12 [Sildenafil, 1-[[3-(6,7-dihydro-1-methyl-7-oxo-3-propyl-1H-pyrazolo[4,3-d]pyrimidin-5-yl)-4-ethoxyphenyl]sulfonyl]-4-methylpiperazine citrate]

Effect of sitaxsentan on levels of the active metabolite ([4]; in the presence of sitaxsentan): No effects | Cmax [4, 13]: 104 ± 40.8 ng/mL | AUC0-t [4, 13]: 389 ± 105 ng·h/mL | AUC∞ [4, 13]: 425 ± 115 ng·h/mL | CL/F [4, 13]: 529 ± 164 mL/min | t½ [4, 13]: 5.14 ± 2.13 h | λz [4, 13]: 0.1544 ± 0.0552 h⁻¹ | Tmax [4, 13]: 1.00 h | Cmax [4, 14]: 109 ± 53.1 ng/mL | AUC0-t [4, 14]: 372 ± 107 ng·h/mL | AUC∞ [4, 14]: 440 ± 112 ng·h/mL | CL/F [4, 14]: 524 ± 234 mL/min | t½ [4, 14]: 05.1 ± 1.63 h | λz [4, 14]: 0.1506 ± 0.0569 h⁻¹ | Tmax [4, 14]: 1.00 h | AUC0-t, geometric mean ratio (%) estimate [4, 15]: 112.43% | AUC∞, geometric mean ratio (%) estimate [4, 15]: 105.78% | CL/F, geometric mean ratio (%) estimate [4, 15]: 88.95% | Cmax, geometric mean ratio (%) estimate [4, 15]: 100.70% | Vz/F, geometric mean ratio (%) estimate [4, 15]: 94.89%
Compound: CCCc1nn(C)c2c(=O)[nH]c(-c3cc(S(=O)(=O)N4CCNCC4)ccc3OCC)nc12 [N-Desmethyl Sildenafil]

Effect of sildenafil administration on sitaxsentan levels / pharmacokinetics ([4]; listed as sitaxsentan): did not alter sitaxsentan levels
Compound: Cc1cc2c(cc1CC(=O)c1sccc1S(=O)(=O)Nc1onc(C)c1Cl)OCO2 [Sitaxsentan]
Effect on bilirubin [5]: No effect. | Effect on bile salt (bile salt export pump): Does not accumulate | Selectivity for ETA:ETB (ETA [6]; Table 4): 6500 | ETA:ETB selectivity ratio (ETA [6]; based upon in vitro receptor affinity ratios): 6500 | Ki (ETA [6]; read-out: Intrinsic potency to ETA (Ki)): 0.45 nM | Selectivity (ETA [2]): 10,000 | Ki (ETB [3]): > 4300 nM | Induction of cytochrome P450 enzymes (cytochrome P450 enzymes): No induction | Metabolism [1]: Through 3A4 and 2C9 | t1/2 [1]: 10 h

Compound: CCCOc1ccc2c(c1)[C@@H](c1ccc(OC)cc1OCCO)[C@H](C(=O)O)[C@H]2c1ccc2c(c1)OCO2 [SB-217242]
Selectivity (ETA [2]): 101

Cytochrome P450 3A4 inhibition (cytochrome P450 3A4): weak | Effect of sildenafil administration on sitaxsentan levels / pharmacokinetics [4]: does not appear to impact
Compound: Cc1cc2c(cc1CC(=O)c1sccc1S(=O)(=O)Nc1onc(C)c1Cl)OCO2 [THELIN]
Selectivity as an antagonist for ETA compared to ETB (ETA [6]): approximately 6,500 fold | Side effects [7]: liver dysfunction (increased ALT and AST), headache, edema, constipation, nasal congestion and flushing

Compound: COc1cc(OC)nc(O[C@H](C(=O)O)C(OC)(c2ccccc2)c2ccccc2)n1 [LU-135252]
Selectivity (ETA [2]): 130 | Ki (ETA [2]; [10]): 1.4 nM | Ki (ETB [3]): 184 nM

Compound: cyclo(D-Glu-L-Ala-allo-D-Ile-L-Leu-D-Trp) [BE-18257B]
IC50 (ETA [8]; aortic smooth muscle): 1400 nM | IC50 (ETA [8]; cultured aortic smooth muscle cells): 500 nM | IC50 (ETA [8]; ventricle membranes): 800 nM | Inhibition of binding to receptors in tissues in which ETB predominates (ETB [9]): fails to inhibit binding

Compound: Cc1ccc(-c2c(NS(=O)(=O)c3ccc(C(C)(C)CO)cc3)ncnc2OCCOc2ncc(Br)cn2)cc1 [T-0201]
Ki (ETA [2]; [10]): 0.015 nM

Compound: CC1(C)CC[C@]2(C(=O)[O-])CC[C@]3(COC(=O)/C=C/c4cc([O-])ccc4NC(=O)/C=C/C(=O)O)C(=CC[C@@H]4[C@@]5(C)CCC(=O)C(C)(C)[C@@H]5CC[C@]43C)[C@@H]2C1.[Na+].[Na+] [S-0139]
Selectivity (ETA [2]): 1000 | Ki (ETA [2]; [10]): 1 nM | Ki (ETB [3]): 1000 nM
